{
  "source": "patent US20210045998A1",
  "about": "(priority 2018, published 2021)",
  "origin": "cited, not measured here",
  "conditions": "in vivo",
  "data": [
    {"compound": "CC1=CC[C@H]2C[C@@H]1C2(C)C", "note": "[α-Pinene, (1S,5S)-2,6,6-Trimethylbicyclo[3.1.1]hept-2-ene]", "values": [
      {"measurement": "human pulmonary uptake", "result": 60, "unit": "%"}
    ]}
  ]
}
